Assay results taken from patent publication US20250144250A1, “PH-SENSITIVE FLUOROPHORES” (The General Hospital Corporation, priority 2022, published 2025).

Tests used:
[1] = test system: ID8 cells; assay: Subcellular localization (co-localization with MitoTracker, LysoTracker, NucBlue); type: cell-based, murine; settings: 10 μM, 30 min incubation
Description: FIG. 3 Subcellular localization of pH sensing NIR fluorophores: (a) Subcellular localization of each probe (10 μM) in ID8 cells was determined after 30 min of incubation at 37° C. Nuclei, mitochondria, and lysosomes were stained with NucBlue, MitoTracker Green, or LysoTracker Red, respectively. Representative fluorescence images of cells. Scale bar=20 μm. (b) Co-localization index of each probe with MitoTracker Green or LysoTracker Red. The index was calculated by dividing the area of overlap between pH probe and MitoTracker or LysoTracker by the total area of MitoTracker or LysoTracker, respectively. The co-localization index was determined in 5-6 photographic areas (70×92 μm^2 each) for each probe. *P<0.05 by two-way ANOVA followed by Tukey's multiple comparisons test. Error bars show means±s.d.
Live-cell labeling and in vitro imaging: Murine ovarian cancer cells (ID8 cells) were obtained from Dr. Wang's lab in the Vincent Center for Reproductive Biology at Massachusetts General Hospital (MGH). Cells were cultured and maintained in Dulbecco's modified Eagle's medium (DMEM) supplemented with 4% FBS (Gibco, Grand Island, NY), 1% insulin-transferrin-selenium (Sigma-Aldrich), and 1% penicillin-streptomycin (Gibco). Cells were plated in a T-75 culture flask until 70% confluency before dividing for the next passage. For fluorophore binding affinity, ID8 cells were incubated at a density of 20,000 cells/well in a 24-well plate in a humidified incubator at 37° C. under 5% CO2 in the air. Cells were then incubated at 37° C. for 30 min in the presence of 0.2 μM of PH03 or PH08 and phenol red-free Hank's balanced salt solution (HBSS) with or without 10% FBS. […] Image acquisition and analysis were performed using IPLab software (Scanalytics, Fairfax, VA), and the fluorescent intensity of each cell was measured using ImageJ (National Institutes of Health, Bethesda, MD). The outline of each cell was determined on a phase-contrast image to specify the region of interest (ROI) and superimposed on a fluorescence image for measurements. All NIR fluorescence images for each fluorophore were normalized identically for all conditions during an experiment. […]
Subcellular distribution of pH sensing NIR fluorophores: To investigate the fate of the NIR fluorophores after uptake by cells, we performed in vitro live-cell imaging and evaluated subcellular localization of the NIR fluorophores in cultured ID8 ovarian cancer cells. PH03 and PH08 were incubated with ID8 cells for 30 min followed by double staining with commercially available MitoTracker or LysoTracker Green and imaged under the house-built NIR fluorescence microscope. […]

[2] = test system: ID8 cells; assay: Inhibition assay of transporters to determine entry mechanism of PH08; type: cell-based, murine; settings: 0.2 μM PH08
Description: FIG. 2 Cellular uptake of pH sensing NIR fluorophores via membrane transporters: In vitro tumor cell uptake of the pH sensing NIR probes under normoxic and hypoxic conditions. Murine cancer cell line ID8 cells were incubated at normoxic or hypoxic conditions (1% O2) for 24 h at 37° C. and then incubated for 30 min in the presence of 0.1 μM NIR probes. (a) Representative fluorescence images of cells are shown. The contrast was normalized across all images. Scale bar=100 μm. (b) Quantitative time-course measurements of the fluorescence intensity in cells. *P<0.05, **P<0.01 by two-way ANOVA followed by Tukey's multiple comparisons test (Normoxia vs. Hypoxia). Error bars show mean #s.d. […] Representative fluorescence images of cells are shown. […] (d) Quantitative measurements of the fluorescence intensity in cells. *P<0.05 by two-way ANOVA followed by Tukey's multiple comparisons test. […]
The organic anion transporting polypeptides (OATPs) is known to mediate the transmembrane uptake of small molecule drugs and include structurally related fluorophores such as the clinically approved indocyanine green (ICG) and tumor-targeting IR-780. […] Next, we determined the contribution of organic cation transporters (OCTs) and organic carnitine (zwitterion) transporters (OCTNs) on the uptake of PH08, which may play roles in the transcellular movement of small organic molecules across epithelial barriers. […]

| Structure (SMILES) | overlap of fluorescence signal with LysoTracker (lysosome) [1] | overlap of fluorescence signal with MitoTracker (mitochondria) [1] | cellular uptake after treatment with D22, inhibitor of OCTs and OCTNs [2] | cellular uptake after treatment with bromsulphthalein (BSP), OATP inhibitor [2] |
| --- | --- | --- | --- | --- |
| CCN1/C(=C/C=C2\CCCC(/C=C/C3=[N+](CC)c4ccccc4C3(C)C)=C2c2ccccc2)C(C)(C)c2ccccc21 [PH03, 1-Ethyl-2-((E)-2-((E)-6-(2-((E)-1-ethyl-3,3-dimethylindolin-2-ylidene)ethylidene)-3,4,5,6-tetrahydro-[1,1′-biphenyl]-2-yl)vinyl)-3,3-dimethyl-3H-indol-1-ium iodide] | 34.93% | 91.47% |  |  |
| CCN1/C(=C/C=C2\CCCC(/C=C/C3=[N+](CC)c4ccccc4C3(C)C)=C2N2CCNCC2)C(C)(C)c2ccccc21 [PH08] | 71.83% | 83.05% | did not induce changes in cellular uptake | significant reduction in cellular uptake |
